For assay [1], the target named is T1, 3-hydroxy-3-methylglutaryl-coenzyme A reductase (Homo sapiens, UniProt P04035).
T1 sequence (P04035 whole entry): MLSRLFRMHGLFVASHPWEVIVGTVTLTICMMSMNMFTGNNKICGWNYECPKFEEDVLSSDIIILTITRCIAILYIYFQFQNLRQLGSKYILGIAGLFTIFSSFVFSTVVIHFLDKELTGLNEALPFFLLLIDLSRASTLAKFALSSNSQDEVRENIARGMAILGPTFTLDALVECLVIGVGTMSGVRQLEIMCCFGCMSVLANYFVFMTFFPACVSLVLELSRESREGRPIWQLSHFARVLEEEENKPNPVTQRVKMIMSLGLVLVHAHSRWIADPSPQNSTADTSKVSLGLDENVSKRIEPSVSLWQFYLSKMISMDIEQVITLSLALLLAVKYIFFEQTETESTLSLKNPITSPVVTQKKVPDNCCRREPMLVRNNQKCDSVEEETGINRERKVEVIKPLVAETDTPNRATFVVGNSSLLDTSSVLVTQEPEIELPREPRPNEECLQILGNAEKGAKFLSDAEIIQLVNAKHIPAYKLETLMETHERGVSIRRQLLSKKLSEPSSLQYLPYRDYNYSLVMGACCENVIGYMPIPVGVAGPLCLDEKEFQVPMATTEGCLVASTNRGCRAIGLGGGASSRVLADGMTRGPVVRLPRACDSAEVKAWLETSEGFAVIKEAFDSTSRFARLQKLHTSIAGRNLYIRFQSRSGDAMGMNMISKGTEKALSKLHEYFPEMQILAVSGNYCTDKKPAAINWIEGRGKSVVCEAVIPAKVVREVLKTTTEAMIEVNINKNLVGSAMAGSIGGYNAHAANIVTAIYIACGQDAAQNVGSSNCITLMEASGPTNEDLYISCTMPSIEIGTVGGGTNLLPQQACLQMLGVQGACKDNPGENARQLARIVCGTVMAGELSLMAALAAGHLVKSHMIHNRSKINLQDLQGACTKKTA
The experiment in a line: Inhibition of HMG-CoA reductase by spectrophotometry.

Assay [2] deals with T1, 3-hydroxy-3-methylglutaryl-coenzyme A reductase. The experiment in a line: Competitive inhibition of HMG-CoA reductase by Dixon plot analysis.

Non-standard residues stand in square brackets, D forms with d. Residues, ends and D or L forms follow the SMILES beside them. Phe(4-F) = N[C@@H](Cc1ccc(F)cc1)C(=O)O

With `CC(C)[C@H](NC(=O)[C@H](Cc1ccc(F)cc1)NC(=O)CNC(=O)[C@@H](N)Cc1ccccc1)C(=O)N[C@@H](C)C(=O)N[C@@H](CCC(=O)O)C(=O)O` (H-FG[Phe(4-F)]VAE-OH), the IC50 (in general, the point on the concentration scale where inhibition reaches its midpoint) in assay [1] (read-out: IC50) turned out to be 8.52 µM.

In the case of `NCC(=O)N[C@@H](Cc1ccc(F)cc1)C(=O)N1CCC[C@H]1C(=O)N[C@@H](CC(=O)O)C(=O)NCC(=O)NCC(=O)O` (H-G[Phe(4-F)]PDGG-OH), in assay [1] (read-out: IC50), the IC50 worked out at 6.95 µM.

For `NCC(=O)N[C@@H](Cc1ccc(F)cc1)C(=O)N1CCC[C@H]1C(=O)N[C@@H](CCC(=O)O)C(=O)NCC(=O)NCC(=O)O` (H-G[Phe(4-F)]PEGG-OH), the IC50 in assay [1] (read-out: IC50) is 0.75 µM.

For the compound `NCC(=O)N[C@@H](Cc1ccc(F)cc1)C(=O)N1CCC[C@H]1C(=O)NCC(=O)NCC(=O)NCC(=O)O` (H-G[Phe(4-F)]PGGG-OH), the 50% inhibitory concentration (IC50) result in assay [1] is “Not Active”.

Consider `C[C@@H](O)[C@H](NC(=O)[C@@H]1CCCN1C(=O)[C@H](Cc1ccc(F)cc1)NC(=O)CN)C(=O)NCC(=O)NCC(=O)O` (H-G[Phe(4-F)]PTGG-OH), for which the IC50 in assay [1] (read-out: IC50) amounted to 4.82 µM. In addition, the Ki (as a rule, the equilibrium dissociation constant of an inhibitor or competing ligand from its target) in assay [2] is 0.26 µM.

For `CC[C@H](C)[C@H](N)C(=O)N[C@@H](C)C(=O)N[C@H](C(=O)N[C@@H](CCC(=O)O)C(=O)O)C(C)C` (H-IAVE-OH), in assay [1] (read-out: IC50), the IC50 is 75.2 µM.

`CC[C@H](C)[C@H](N)C(=O)N[C@H](C(=O)N[C@@H](C)C(=O)N[C@@H](CCC(=O)O)C(=O)O)C(C)C` (H-IVAE-OH): the IC50 in assay [1] (read-out: IC50) amounted to 52.7 µM.

As to `CC(C)C[C@H](N)C(=O)N1CCC[C@H]1C(=O)N[C@@H](Cc1ccc(O)cc1)C(=O)N1CCC[C@H]1C(=O)O` (H-LPYP-OH), the IC50 in assay [1] (read-out: IC50) was 485 µM.

With `CC(C)[C@H](NC(=O)[C@H](C)NC(=O)[C@@H](N)Cc1ccc(O)cc1)C(=O)N[C@@H](CCC(=O)O)C(=O)O` (H-YAVE-OH), in assay [1] (read-out: IC50), the IC50 worked out at 44.8 µM.

With `CC(C)[C@H](NC(=O)[C@@H](N)Cc1ccc(O)cc1)C(=O)N[C@@H](C)C(=O)N[C@@H](CCC(=O)O)C(=O)O` (H-YVAE-OH), the IC50 in assay [1] (read-out: IC50) worked out at 41.2 µM.

As to `CC(C)[C@H](NC(=O)[C@@H](N)Cc1ccc(F)cc1)C(=O)N[C@@H](C)C(=O)N[C@@H](CCC(=O)O)C(=O)O` (H-[Phe(4-F)]VAE-OH), the IC50 in assay [1] (read-out: IC50) amounted to 3.84 µM.

As for H-DFGYVAE-OH, the IC50 in assay [1] (read-out: IC50) was 0.16 µM. This compound also registered a Ki in assay [2] of 0.051 µM.

Regarding H-DFGYVAG-OH, the IC50 entry in assay [1] was “Not Active”.

As for H-EFGYVAE-OH, the 50% inhibitory concentration (IC50) in assay [1] (read-out: IC50) turned out to be 0.24 µM.

Regarding H-FFYVAE-OH, the IC50 in assay [1] (read-out: IC50) amounted to 2.56 µM.

On to H-FGYVAE-OH, for which the IC50 in assay [1] (read-out: IC50) was 0.41 µM.

For the compound H-FPYVAE-OH, in assay [1] (read-out: IC50), the IC50 amounted to 1.47 µM.

As for H-GFGYVAE-OH, in assay [1] (read-out: IC50), the IC50 came to 0.27 µM.

With H-GFPDGG-OH, the IC50 in assay [1] (read-out: IC50) came to 1.52 µM.

As for H-GFPEGG-OH, in assay [1] (read-out: IC50), the IC50 was 1.78 µM.

On to H-GFPTGG-OH, for which the IC50 in assay [1] (read-out: IC50) was 16.9 µM.

Regarding H-GLPDGG-OH, in assay [1] (read-out: IC50), the IC50 turned out to be 22.3 µM.

For the compound H-GLPEGG-OH, the IC50 in assay [1] (read-out: IC50) turned out to be 27.3 µM.

On to H-GLPTGG-OH, for which the IC50 in assay [1] (read-out: IC50) came to 19.4 µM.

As for H-IAVPGEVA-OH, the IC50 in assay [1] (read-out: IC50) came to 201 µM.

Consider H-IAVPTGVA-OH, for which the half-maximal inhibitory concentration (IC50) in assay [1] (read-out: IC50) worked out at 152 µM.

For the compound H-TFGYVAE-OH, the IC50 in assay [1] (read-out: IC50) amounted to 0.26 µM.

The record behind these values is ChEMBL document CHEMBL1165979, “Peptide fragmentation as an approach in modeling of an active peptide and designing a competitive inhibitory peptide for HMG-CoA reductase” (Bioorg Med Chem, 2010).
